Laboratory results: ChEMBL document CHEMBL3576778, “Structure-Activity Relationship Studies of a Series of Semisynthetic Lipopeptides Leading to the Discovery of Surotomycin, a Novel Cyclic Lipopeptide Being Developed for the Treatment of Clostridium difficile-Associated Diarrhea” (J Med Chem, 2015)
In brackets after ≈: the same amount, converted by molar mass.

Columns and labels:
Format in all cases: functional
Enterococcus faecalis = experiment: Antimicrobial activity against daptomycin-resistant Enterococcus faecalis ATCC 49452 incubated anaerobically at 37 degC for 48 hrs by agar dilution method; conditions: ATCC 49452, 48 h
Clostridioides difficile [1] = experiment: Antimicrobial activity against daptomycin-resistant Clostridium difficile NAP1 incubated anaerobically at 37 degC for 48 hrs by agar dilution method; conditions: NAP1, 48 h
Clostridioides difficile [2] = experiment: Antimicrobial activity against daptomycin-resistant Clostridium difficile ATCC 43596 infected in Syrian golden hamster model of Clostridium difficile-associated diarrhea assessed as protection against microbial infection by measuring survival at day 25 to 26 at 0.5 mg/kg treated once daily for 5 consecutive days starting 4 hrs after spore inoculation
Enterococcus faecium = experiment: Antimicrobial activity against daptomycin-resistant Enterococcus faecium ATCC 6569 incubated anaerobically at 37 degC for 48 hrs by agar dilution method; conditions: ATCC 6569, 48 h
Staphylococcus aureus = experiment: Antimicrobial activity against daptomycin-susceptible Staphylococcus aureus ATCC 29213 incubated anaerobically at 37 degC for 48 hrs by agar dilution method; conditions: ATCC 29213, 48 h

SMILES | MIC (Enterococcus faecalis) [µg/mL] | MIC (Clostridioides difficile [1]) [µg/mL] | survival at 0.5 mg/kg (Clostridioides difficile [2]) [%] | MIC (Enterococcus faecium) [µg/mL] | MIC (Staphylococcus aureus) [µg/mL]
CCCCCCCc1csc(C(=O)N[C@@H](Cc2c[nH]c3ccccc23)C(=O)N[C@@H](CC(N)=O)C(=O)N[C@@H](CC(=O)O)C(=O)N[C@@H]2C(=O)NCC(=O)N[C@@H](CCCN)C(=O)N[C@H](CC(=O)O)C(=O)N[C@H](C)C(=O)N[C@@H](CC(=O)O)C(=O)NCC(=O)N[C@H](CO)C(=O)N[C@@H]([C@@H](C)CC(=O)O)C(=O)N[C@@H](CC(=O)c3ccccc3N)C(=O)O[C@@H]2C)c1 | 32 (≈ 19.1 µM) | 2 (≈ 1.19 µM) | 60 | 16 (≈ 9.55 µM) | 0.125 (≈ 0.0746 µM)
CC(C)CCCCCCCCCC(=O)N[C@@H](Cc1c[nH]c2ccccc12)C(=O)N[C@@H](CC(N)=O)C(=O)N[C@@H](CC(=O)O)C(=O)N[C@@H]1C(=O)NCC(=O)N[C@@H](CCCN)C(=O)NC(CC(=O)O)C(=O)N[C@H](C)C(=O)N[C@@H](CC(=O)O)C(=O)NCC(=O)N[C@H](CO)C(=O)N[C@@H]([C@@H](C)CC(=O)O)C(=O)N[C@@H](CC(=O)c2ccccc2N)C(=O)O[C@@H]1C (single isomer, unassigned) | > 32 | 1 (≈ 0.601 µM) |  | 4 (≈ 2.41 µM) | 0.25 (≈ 0.15 µM)
CCCCCCCCOc1ccc(-c2ccc(C(=O)N[C@@H](Cc3c[nH]c4ccccc34)C(=O)N[C@@H](CC(N)=O)C(=O)N[C@@H](CC(=O)O)C(=O)N[C@@H]3C(=O)NCC(=O)N[C@@H](CCCN)C(=O)N[C@H](CC(=O)O)C(=O)N[C@H](C)C(=O)N[C@@H](CC(=O)O)C(=O)NCC(=O)N[C@H](CO)C(=O)N[C@@H]([C@@H](C)CC(=O)O)C(=O)N[C@@H](CC(=O)c4ccccc4N)C(=O)O[C@@H]3C)cc2)cc1 | 16 (≈ 9.01 µM) | 1 (≈ 0.563 µM) |  | 4 (≈ 2.25 µM) | 0.125 (≈ 0.0704 µM)
CCCCCC12CCC(C(=O)N[C@@H](Cc3c[nH]c4ccccc34)C(=O)N[C@@H](CC(N)=O)C(=O)N[C@@H](CC(=O)O)C(=O)N[C@@H]3C(=O)NCC(=O)N[C@@H](CCCN)C(=O)N[C@H](CC(=O)O)C(=O)N[C@H](C)C(=O)N[C@@H](CC(=O)O)C(=O)NCC(=O)N[C@H](CO)C(=O)N[C@@H]([C@@H](C)CC(=O)O)C(=O)N[C@@H](CC(=O)c4ccccc4N)C(=O)O[C@@H]3C)(CC1)CC2 | 32 (≈ 19.1 µM) | 1 (≈ 0.598 µM) | 60 | 16 (≈ 9.56 µM) | 0.25 (≈ 0.149 µM)
CCCCCCCCCCCCCC(=O)N[C@@H](Cc1c[nH]c2ccccc12)C(=O)N[C@@H](CC(N)=O)C(=O)N[C@@H](CC(=O)O)C(=O)N[C@@H]1C(=O)NCC(=O)N[C@@H](CCCN)C(=O)NC(CC(=O)O)C(=O)N[C@H](C)C(=O)N[C@@H](CC(=O)O)C(=O)NCC(=O)N[C@H](CO)C(=O)N[C@@H]([C@@H](C)CC(=O)O)C(=O)N[C@@H](CC(=O)c2ccccc2N)C(=O)O[C@@H]1C (single isomer, unassigned) | 4 (≈ 2.39 µM) | 16 (≈ 9.54 µM) |  | 4 (≈ 2.39 µM) | 1 (≈ 0.596 µM)
C[C@H]1NC(=O)C(CC(=O)O)NC(=O)[C@H](CCCN)NC(=O)CNC(=O)[C@@H](NC(=O)[C@H](CC(=O)O)NC(=O)[C@H](CC(N)=O)NC(=O)[C@H](Cc2c[nH]c3ccccc23)NC(=O)CCCCCc2ccccc2)[C@@H](C)OC(=O)[C@H](CC(=O)c2ccccc2N)NC(=O)[C@H]([C@@H](C)CC(=O)O)NC(=O)[C@@H](CO)NC(=O)CNC(=O)[C@H](CC(=O)O)NC1=O (single isomer, unassigned) | > 32 | 16 (≈ 9.75 µM) |  | > 32 | 16 (≈ 9.75 µM)
C[C@H]1NC(=O)C(CC(=O)O)NC(=O)[C@H](CCCN)NC(=O)CNC(=O)[C@@H](NC(=O)[C@H](CC(=O)O)NC(=O)[C@H](CC(N)=O)NC(=O)[C@H](Cc2c[nH]c3ccccc23)NC(=O)CCCCCCC2CCCCC2)[C@@H](C)OC(=O)[C@H](CC(=O)c2ccccc2N)NC(=O)[C@H]([C@@H](C)CC(=O)O)NC(=O)[C@@H](CO)NC(=O)CNC(=O)[C@H](CC(=O)O)NC1=O (single isomer, unassigned) | 16 (≈ 9.63 µM) | 1 (≈ 0.602 µM) |  | 8 (≈ 4.82 µM) | 0.5 (≈ 0.301 µM)
CCCCCOc1ccc(/C=C/C(=O)N[C@@H](Cc2c[nH]c3ccccc23)C(=O)N[C@@H](CC(N)=O)C(=O)N[C@@H](CC(=O)O)C(=O)N[C@@H]2C(=O)NCC(=O)N[C@@H](CCCN)C(=O)NC(CC(=O)O)C(=O)N[C@H](C)C(=O)N[C@@H](CC(=O)O)C(=O)NCC(=O)N[C@H](CO)C(=O)N[C@@H]([C@@H](C)CC(=O)O)C(=O)N[C@@H](CC(=O)c3ccccc3N)C(=O)O[C@@H]2C)cc1 (single isomer, unassigned) | > 32 | 4 (≈ 2.38 µM) |  | > 32 | 4 (≈ 2.38 µM)
CCCCCCOc1ccc(-c2csc(C(=O)N[C@@H](Cc3c[nH]c4ccccc34)C(=O)N[C@@H](CC(N)=O)C(=O)N[C@@H](CC(=O)O)C(=O)N[C@@H]3C(=O)NCC(=O)N[C@@H](CCCN)C(=O)NC(CC(=O)O)C(=O)N[C@H](C)C(=O)N[C@@H](CC(=O)O)C(=O)NCC(=O)N[C@H](CO)C(=O)N[C@@H]([C@@H](C)CC(=O)O)C(=O)N[C@@H](CC(=O)c4ccccc4N)C(=O)O[C@@H]3C)c2)cc1 (single isomer, unassigned) | 8 (≈ 4.56 µM) | 4 (≈ 2.28 µM) |  | 2 (≈ 1.14 µM) | 0.5 (≈ 0.285 µM)
CCCCCCCCCCCCC(=O)N[C@@H](Cc1c[nH]c2ccccc12)C(=O)N[C@@H](CC(N)=O)C(=O)N[C@@H](CC(=O)O)C(=O)N[C@@H]1C(=O)NCC(=O)N[C@@H](CCCN)C(=O)NC(CC(=O)O)C(=O)N[C@H](C)C(=O)N[C@@H](CC(=O)O)C(=O)NCC(=O)N[C@H](CO)C(=O)N[C@@H]([C@@H](C)CC(=O)O)C(=O)N[C@@H](CC(=O)c2ccccc2N)C(=O)O[C@@H]1C (single isomer, unassigned) | 8 (≈ 4.81 µM) | 8 (≈ 4.81 µM) |  | 8 (≈ 4.81 µM) | 0.5 (≈ 0.301 µM)
C[C@H]1NC(=O)[C@@H](CC(=O)O)NC(=O)[C@H](CCCN)NC(=O)CNC(=O)[C@@H](NC(=O)[C@H](CC(=O)O)NC(=O)[C@H](CC(N)=O)NC(=O)[C@H](Cc2c[nH]c3ccccc23)NC(=O)c2ccc(-c3ccc(Cl)cc3)cc2)[C@@H](C)OC(=O)[C@H](CC(=O)c2ccccc2N)NC(=O)[C@H]([C@@H](C)CC(=O)O)NC(=O)[C@@H](CO)NC(=O)CNC(=O)[C@H](CC(=O)O)NC1=O | > 32 | 16 (≈ 9.52 µM) |  | > 32 | 4 (≈ 2.38 µM)
CCCCCCOc1ccc(-c2ccc(C(=O)N[C@@H](Cc3c[nH]c4ccccc34)C(=O)N[C@@H](CC(N)=O)C(=O)N[C@@H](CC(=O)O)C(=O)N[C@@H]3C(=O)NCC(=O)N[C@@H](CCCN)C(=O)N[C@H](CC(=O)O)C(=O)N[C@H](C)C(=O)N[C@@H](CC(=O)O)C(=O)NCC(=O)N[C@H](CO)C(=O)N[C@@H]([C@@H](C)CC(=O)O)C(=O)N[C@@H](CC(=O)c4ccccc4N)C(=O)O[C@@H]3C)cc2)cc1 | 2 (≈ 1.14 µM) | 2 (≈ 1.14 µM) |  | 1 (≈ 0.572 µM) | 0.5 (≈ 0.286 µM)
C[C@H]1NC(=O)C(CC(=O)O)NC(=O)[C@H](CCCN)NC(=O)CNC(=O)[C@@H](NC(=O)[C@H](CC(=O)O)NC(=O)[C@H](CC(N)=O)NC(=O)[C@H](Cc2c[nH]c3ccccc23)NC(=O)CCCCCC2CCCCC2)[C@@H](C)OC(=O)[C@H](CC(=O)c2ccccc2N)NC(=O)[C@H]([C@@H](C)CC(=O)O)NC(=O)[C@@H](CO)NC(=O)CNC(=O)[C@H](CC(=O)O)NC1=O (single isomer, unassigned) | > 32 | 2 (≈ 1.21 µM) |  | 16 (≈ 9.72 µM) | 1 (≈ 0.607 µM)
CCCCCCCCCCCCCCC(=O)N[C@@H](Cc1c[nH]c2ccccc12)C(=O)N[C@@H](CC(N)=O)C(=O)N[C@@H](CC(=O)O)C(=O)N[C@@H]1C(=O)NCC(=O)N[C@@H](CCCN)C(=O)NC(CC(=O)O)C(=O)N[C@H](C)C(=O)N[C@@H](CC(=O)O)C(=O)NCC(=O)N[C@H](CO)C(=O)N[C@@H]([C@@H](C)CC(=O)O)C(=O)N[C@@H](CC(=O)c2ccccc2N)C(=O)O[C@@H]1C (single isomer, unassigned) | 4 (≈ 2.37 µM) | 16 (≈ 9.46 µM) |  | 4 (≈ 2.37 µM) | 1 (≈ 0.591 µM)
CC(C)CCCCCCCCCCC(=O)N[C@@H](Cc1c[nH]c2ccccc12)C(=O)N[C@@H](CC(N)=O)C(=O)N[C@@H](CC(=O)O)C(=O)N[C@@H]1C(=O)NCC(=O)N[C@@H](CCCN)C(=O)NC(CC(=O)O)C(=O)N[C@H](C)C(=O)N[C@@H](CC(=O)O)C(=O)NCC(=O)N[C@H](CO)C(=O)N[C@@H]([C@@H](C)CC(=O)O)C(=O)N[C@@H](CC(=O)c2ccccc2N)C(=O)O[C@@H]1C (single isomer, unassigned) | 16 (≈ 9.54 µM) | 1 (≈ 0.596 µM) |  | 4 (≈ 2.39 µM) | 0.125 (≈ 0.0745 µM)
C[C@H]1NC(=O)C(CC(=O)O)NC(=O)[C@H](CCCN)NC(=O)CNC(=O)[C@@H](NC(=O)[C@H](CC(=O)O)NC(=O)[C@H](CC(N)=O)NC(=O)[C@H](Cc2c[nH]c3ccccc23)NC(=O)CCCCCCc2ccccc2)[C@@H](C)OC(=O)[C@H](CC(=O)c2ccccc2N)NC(=O)[C@H]([C@@H](C)CC(=O)O)NC(=O)[C@@H](CO)NC(=O)CNC(=O)[C@H](CC(=O)O)NC1=O (single isomer, unassigned) | > 32 | 8 (≈ 4.83 µM) |  | > 32 | 16 (≈ 9.67 µM)
C[C@H]1NC(=O)C(CC(=O)O)NC(=O)[C@H](CCCN)NC(=O)CNC(=O)[C@@H](NC(=O)[C@H](CC(=O)O)NC(=O)[C@H](CC(N)=O)NC(=O)[C@H](Cc2c[nH]c3ccccc23)NC(=O)CCCCC2CCCCC2)[C@@H](C)OC(=O)[C@H](CC(=O)c2ccccc2N)NC(=O)[C@H]([C@@H](C)CC(=O)O)NC(=O)[C@@H](CO)NC(=O)CNC(=O)[C@H](CC(=O)O)NC1=O (single isomer, unassigned) | > 32 | 4 (≈ 2.45 µM) |  | 32 (≈ 19.6 µM) | 1 (≈ 0.612 µM)
CCCCCCSc1ccc(-c2csc(C(=O)N[C@@H](Cc3c[nH]c4ccccc34)C(=O)N[C@@H](CC(N)=O)C(=O)N[C@@H](CC(=O)O)C(=O)N[C@@H]3C(=O)NCC(=O)N[C@@H](CCCN)C(=O)N[C@H](CC(=O)O)C(=O)N[C@H](C)C(=O)N[C@@H](CC(=O)O)C(=O)NCC(=O)N[C@H](CO)C(=O)N[C@@H]([C@@H](C)CC(=O)O)C(=O)N[C@@H](CC(=O)c4ccccc4N)C(=O)O[C@@H]3C)c2)cc1 | > 32 | 8 (≈ 4.52 µM) |  | 16 (≈ 9.05 µM) | 8 (≈ 4.52 µM)
